The numbers were not newly measured in patent publication EP0467998B1, “PEPTIDES FROM RETINOBLASTOMA GENE PRODUCTS AND ANTIBODIES THERETO” (BAYLOR COLLEGE OF MEDICINE, priority 1989, dated 1990), which cites them from elsewhere.

The conditions of the data set: individual amino acid, Hopp and Woods (1981).
Consider `N[C@@H](Cc1c[nH]cn1)C(=O)O` [His], for which the “Hydrophilicity Value” is recorded as -0.5.

As for `N=C(N)NCCC[C@H](N)C(=O)O` [Arg], the “Hydrophilicity Value” is 3.0.

On to `N[C@@H](CO)C(=O)O` [Ser], for which the “Hydrophilicity Value” was 0.3.

Turning to `O=C(O)[C@@H]1CCCN1` [Pro], the “Hydrophilicity Value” is 0.0.

`C[C@H](N)C(=O)O` [Ala]: the “Hydrophilicity Value” was -0.5.

For the compound `NCCCC[C@H](N)C(=O)O` [Lys], the “Hydrophilicity Value” is given as 3.0.

`NCC(=O)O` [Gly]: the “Hydrophilicity Value” is given as 0.0.

As for `C[C@@H](O)[C@H](N)C(=O)O` [Thr], the “Hydrophilicity Value” is given as -0.4.

Take `CC(C)[C@H](N)C(=O)O` [Val]: the “Hydrophilicity Value” is -1.5.

As to `N[C@@H](CCC(=O)O)C(=O)O` [Glu], the “Hydrophilicity Value” is 3.0.

With `N[C@@H](Cc1c[nH]c2ccccc12)C(=O)O` [Trp], the “Hydrophilicity Value” was -3.4.

Consider `N[C@@H](Cc1ccccc1)C(=O)O` [Phe], for which the “Hydrophilicity Value” was -2.5.

`N[C@@H](Cc1ccc(O)cc1)C(=O)O` [Tyr]: the “Hydrophilicity Value” was -2.3.

Take `N[C@@H](CS)C(=O)O` [Cys]: the “Hydrophilicity Value” is listed as -1.0.

As for `N[C@@H](CC(=O)O)C(=O)O` [Asp], the “Hydrophilicity Value” is 3.0.

Regarding `CSCC[C@H](N)C(=O)O` [Met], the “Hydrophilicity Value” was -1.3.

Take `NC(=O)C[C@H](N)C(=O)O` [Asn]: the “Hydrophilicity Value” is given as 0.2.

`CC[C@H](C)[C@H](N)C(=O)O` [Ile]: the “Hydrophilicity Value” is on record as -1.8.
